Laboratory results: patent publication US11040028B2, “Penicinotam derivative, preparation method and use thereof” (OCEAN UNIVERSITY OF CHINA, priority 2017, dated 2021)

Experiments:
Format in all cases: cell-based
BHK-21 cells = experiment: Anti-fibrosis activity test: inhibition of BHK-21 cell proliferation (CCK-8); conditions: Mesocricetus auratus, BHK-21, 48 h
Procedure, shortened: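 Proliferation inhibition was read as CCK-8 absorbance at 450 nm (2-hour development) relative to untreated blank, with IC50 fitted from the curve. Before that, adhered cells (2×10^4 cells/mL, 24 hours) had 48 hours' treatment at several concentrations, in triplicate, at 37° C/5% CO2; pirfenidone was the reference.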

[1] = test system: human embryonic lung fibroblast IMR-90; experiment: Anti-fibrosis activity test: inhibition of proliferation of human embryonic lung fibroblast IMR-90 (CCK-8)
Procedure, shortened: (§1)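 Proliferation read by CCK-8 (2 h, A450) after 48 h compound treatment of cells plated at 2×10^4 cells/mL and allowed 24 h attachment, triplicate per concentration. Inhibition rate derived from absorbance relative to untreated blank, with IC50 fitted; pirfenidone as positive control.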

[2] = test system: mouse macrophages (RAW264.7); experiment: Lipopolysaccharide-induced NO secretion in macrophages (Griess); conditions: Mus musculus, RAW264.7, 24 h, RAW264.7, LPS 1 μg/ml, a/b isomers given as first/second symbol, read-out: IC50 (μM), inhibition of lipopolysaccharide-induced NO secretion in macrophages
Procedure, shortened: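 Percent inhibition of NO release was measured by Griess absorbance at 548 nm in supernatants. Cells were mouse RAW264.7 macrophages in 10% FBS DMEM, treated with graded compound concentrations and activated by LPS (1 μg/ml) for 24 h.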

[3] = test system: cardiac fibroblast RAT-iCell-C002; experiment: Anti-fibrosis activity test: inhibition of proliferation of cardiac fibroblast RAT-iCell-C002 (CCK-8); conditions: Cardiac fibroblast, 48 h
Procedure, shortened: as §1

[4] = test system: human fibrosarcoma cells HT-1080; experiment: Anti-fibrosis activity test: inhibition of proliferation of human fibrosarcoma cells HT-1080 (CCK-8); conditions: Homo sapiens, HT-1080, 48 h
Procedure, shortened: as §1

[5] = test system: human dermal fibroblasts CCC-ESF-1; experiment: Anti-fibrosis activity test: inhibition of proliferation of human dermal fibroblasts CCC-ESF-1 (CCK-8); conditions: Fibroblast
Procedure, shortened: as §1

[6] = test system: human lung fibroblasts HFL1; experiment: Anti-fibrosis activity test: inhibition of proliferation of human lung fibroblasts HFL1 (CCK-8); conditions: Homo sapiens, HFL1, 48 h
Procedure, shortened: as §1

NF-κB = experiment: Immunological activity test: inhibition of NF-κB activity; conditions: initial concentration of 30 μM; a/b isomers given as first/second symbol; read-out: IC50 (μM), inhibitory activity against NF-κB
Procedure, shortened: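 IC50 values were derived after initial screening of compounds at 30 μM for NF-κB inhibitory activity, with parthenolide serving as the positive control.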

[7] = test system: human hepatic stellate cells LX-2; experiment: Anti-fibrosis activity test: inhibition of proliferation of human hepatic stellate cells LX-2 (CCK-8); conditions: Homo sapiens, 48 h
Procedure, shortened: as §1

[8] = CCK-8, 48 hours after administration
[9] = human embryonic lung fibroblast IMR-90, CCK-8, 48 hours
[10] = cardiac fibroblast RAT-iCell-C002, CCK-8, 48 hours
[11] = human fibrosarcoma cells HT-1080, CCK-8, 48 hours
[12] = human dermal fibroblasts CCC-ESF-1, CCK-8, 48 hours
[13] = human lung fibroblasts HFL1, CCK-8, 48 hours
[14] = human hepatic stellate cells LX-2, CCK-8, 48 hours

IC50 [2] [µM]	IC50 [4, 11] [mM]	IC50 (NF-κB) [µM]	IC50 ([4]; HT-1080 cells, 48 h, CCK-8) [mM]	SMILES	IC50 (BHK-21 cells; [8]) [mM]	IC50 [1, 9] [mM]	IC50 [3, 10] [mM]	IC50 [5, 12] [mM]	IC50 [6, 13] [mM]	IC50 [7, 14] [mM]	IC50 (BHK-21 cells; 48 h, CCK-8) [mM]	IC50 ([1]; Homo sapiens, IMR-90 cells, 48 h, CCK-8) [mM]	IC50 ([3]; RAT-iCell-C002 cells, CCK-8) [mM]	IC50 ([5]; Homo sapiens, CCC-ESF-1 cells, 48 h, CCK-8) [mM]	IC50 ([6]; HFL1 cells, 48 h, CCK-8) [mM]	IC50 ([7]; LX-2, 48 h, LX-2 cells, CCK-8) [mM]
1 to 10	0.05 to 5	1 to 10		O=C1c2c(nc3c(Cl)cccc3c2O)-c2cccn21 [Compound 443b, 5-chloro-9-hydroxy-10H-pyrrolizino[1,2-b]quinolin-10-one]	0.05 to 5	0.05 to 5	0.05 to 5	0.05 to 5	0.05 to 5	0.05 to 5						
1 to 10	0.05 to 5	1 to 10		O=C1c2c([nH]c3ccc(C(F)(F)F)cc3c2=O)-c2cccn21 [Compound 282a, 7-(Trifluoromethyl)-9H-pyrrolizino[1,2-b]quinoline-9,10(4H)-dione]	0.05 to 5	0.05 to 5	0.05 to 5	0.05 to 5	0.05 to 5	0.05 to 5						
0.1 to 1	0.05 to 5	1 to 10		O=C1c2c(n(Cc3ccc(C(F)(F)F)cc3)c3ccccc3c2=O)-c2cccn21 [Compound 591a, 4-(4-(Trifluoromethyl)benzyl)-9H-pyrrolizino[1,2-b]quinoline-9,10(4H)-dione]	0.05 to 5	0.05 to 5	0.05 to 5	0.05 to 5	0.05 to 5	0.05 to 5						
0.1 to 1	0.05 to 5	1 to 10		O=C1c2c(n(Cc3ccccc3C(F)(F)F)c3ccccc3c2=O)-c2cccn21 [Compound 581a, 4-(2-(Trifluoromethyl)benzyl)-9H-pyrrolizino[1,2-b]quinoline-9,10(4H)-dione]	0.05 to 5	0.05 to 5	0.05 to 5	0.05 to 5	0.05 to 5	0.05 to 5						
1 to 10		0.1 to 1	0.05 to 5	CCCOCCOc1c2c(nc3ccccc13)-c1cccn1C2=O [Compound 671b, 9-(2-propoxyethoxy)-10H-pyrrolizino[1,2-b]quinolin-10-one]							0.05 to 5	0.05 to 5	0.05 to 5	0.05 to 5	0.05 to 5	0.05 to 5
1 to 10	0.05 to 5	1 to 10		O=C1c2c(nc3ccccc3c2OCc2ccc(F)cc2F)-c2cccn21 [Compound 578b, 9-((2,4-difluorobenzyl)oxy)-10H-pyrrolizino[1,2-b]quinolin-10-one]	0.05 to 5	0.05 to 5	0.05 to 5	0.05 to 5	0.05 to 5	0.05 to 5						
1 to 10	0.05 to 5	1 to 10		N#Cc1ccc(COc2c3c(nc4ccccc24)-c2cccn2C3=O)cc1 [Compound 590b, 4-(((10-oxo-10H-pyrrolizino[1,2-b]quinolin-9-yl)oxy)methyl)benzonitrile]	0.05 to 5	0.05 to 5	0.05 to 5	0.05 to 5	0.05 to 5	0.05 to 5						
1 to 10	0.05 to 5	1 to 10		O=C(O)c1ccccc1-c1ccc(COc2c3c(nc4ccccc24)-c2cccn2C3=O)cc1 [Compound 81b, 4′-(((10-oxo-10H-pyrrolizino[1,2-b]quinolin-9-yl)oxy)methyl)-[1,1′-biphenyl]-2-carboxylic acid]	0.05 to 5	0.05 to 5	0.05 to 5	0.05 to 5	0.05 to 5	< 0.05						

SMILES	IC50 [2] [µM]	IC50 [4, 11] [mM]	IC50 (NF-κB) [µM]	IC50 ([4]; HT-1080 cells, 48 h, CCK-8) [mM]	IC50 (BHK-21 cells; [8]) [mM]	IC50 [1, 9] [mM]	IC50 [3, 10] [mM]	IC50 [5, 12] [mM]	IC50 [6, 13] [mM]	IC50 [7, 14] [mM]	IC50 (BHK-21 cells; 48 h, CCK-8) [mM]	IC50 ([1]; Homo sapiens, IMR-90 cells, 48 h, CCK-8) [mM]	IC50 ([3]; RAT-iCell-C002 cells, CCK-8) [mM]	IC50 ([5]; Homo sapiens, CCC-ESF-1 cells, 48 h, CCK-8) [mM]	IC50 ([6]; HFL1 cells, 48 h, CCK-8) [mM]	IC50 ([7]; LX-2, 48 h, LX-2 cells, CCK-8) [mM]
O=C1c2c(nc3ccccc3c2OCCCCN2CCOCC2)-c2cccn21 [Compound 664b, 9-(4-morpholinobutoxy)-10H-pyrrolizino[1,2-b]quinolin-10-one]	10 to 50	0.05 to 5	1 to 10		0.05 to 5	0.05 to 5	0.05 to 5	0.05 to 5	0.05 to 5	0.05 to 5						
